Laboratory results taken from ChEMBL document CHEMBL2406911, “Structure guided design of a series of sphingosine kinase (SphK) inhibitors” (Bioorg Med Chem Lett, 2013).

Assays:
Sphingosine kinase 2 [1] = biological target: T1, Sphingosine kinase 2 (Homo sapiens, UniProt Q9NRA0)
T1 sequence (Q9NRA0 whole entry): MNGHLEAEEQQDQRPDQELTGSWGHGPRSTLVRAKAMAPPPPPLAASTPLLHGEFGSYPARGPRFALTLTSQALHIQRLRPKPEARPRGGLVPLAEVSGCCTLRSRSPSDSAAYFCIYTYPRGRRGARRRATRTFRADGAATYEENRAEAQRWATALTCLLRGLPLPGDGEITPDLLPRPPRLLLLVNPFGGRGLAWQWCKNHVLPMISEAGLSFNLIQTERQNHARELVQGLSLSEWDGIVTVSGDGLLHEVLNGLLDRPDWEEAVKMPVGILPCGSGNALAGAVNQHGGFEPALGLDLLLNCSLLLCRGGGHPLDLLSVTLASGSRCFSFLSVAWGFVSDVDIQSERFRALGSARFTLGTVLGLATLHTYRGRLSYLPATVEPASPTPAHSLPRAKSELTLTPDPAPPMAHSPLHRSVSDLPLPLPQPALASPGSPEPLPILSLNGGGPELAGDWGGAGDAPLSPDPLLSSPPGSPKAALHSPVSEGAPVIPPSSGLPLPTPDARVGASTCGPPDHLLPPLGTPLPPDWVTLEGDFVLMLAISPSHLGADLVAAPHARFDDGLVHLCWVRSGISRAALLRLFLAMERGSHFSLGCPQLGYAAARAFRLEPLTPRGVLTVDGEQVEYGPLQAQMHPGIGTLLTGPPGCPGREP
Description: Inhibition of purified human SphK2 assessed as inhibition of formation of [33P]-S1P after 50 mins by scintillation counting

Sphingosine kinase 1 [2] = biological target: T2, Sphingosine kinase 1 (Homo sapiens, UniProt Q9NYA1)
T2 sequence (Q9NYA1 whole entry): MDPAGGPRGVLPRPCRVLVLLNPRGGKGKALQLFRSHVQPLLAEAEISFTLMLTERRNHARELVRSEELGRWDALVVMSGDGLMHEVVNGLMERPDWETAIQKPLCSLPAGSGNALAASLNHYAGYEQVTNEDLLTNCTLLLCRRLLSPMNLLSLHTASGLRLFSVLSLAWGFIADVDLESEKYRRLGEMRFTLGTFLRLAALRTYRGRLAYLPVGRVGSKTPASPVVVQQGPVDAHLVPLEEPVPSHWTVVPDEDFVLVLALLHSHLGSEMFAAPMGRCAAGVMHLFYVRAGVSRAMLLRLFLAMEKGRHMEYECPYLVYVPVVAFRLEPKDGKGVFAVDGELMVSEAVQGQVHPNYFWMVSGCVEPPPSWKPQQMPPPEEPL
Description: Inhibition of purified human SphK1 assessed as inhibition of formation of [33P]-S1P after 50 mins by scintillation counting

[3] = Volume of distribution at steady state in rat at 0.5 mg/kg, iv; format: ADME, organism-based; design: dose 0.5 mg/kg, route intravenous; settings: in vivo, read-out: Vdss
[4] = Clearance in rat at 0.5 mg/kg, iv; format: ADME, organism-based; design: dose 0.5 mg/kg, route intravenous; settings: in vivo
Sphingosine kinase 1 [5] = biological target: T2, Sphingosine kinase 1; remark: listed apart in the source
Description: Inhibition of SphK1 in human WM266-4 cells assessed as inhibition of formation of [17C]-S1P formation after 20 mins by LC-MS analysis

Sphingosine kinase 1 [6] = biological target: Sphingosine kinase 1 (Mus musculus, UniProt Q8CI15); assay: Inhibition of mouse SphK1
Sphingosine kinase 1 (Mus musculus, UniProt Q8CI15), sequence (Q8CI15 whole entry): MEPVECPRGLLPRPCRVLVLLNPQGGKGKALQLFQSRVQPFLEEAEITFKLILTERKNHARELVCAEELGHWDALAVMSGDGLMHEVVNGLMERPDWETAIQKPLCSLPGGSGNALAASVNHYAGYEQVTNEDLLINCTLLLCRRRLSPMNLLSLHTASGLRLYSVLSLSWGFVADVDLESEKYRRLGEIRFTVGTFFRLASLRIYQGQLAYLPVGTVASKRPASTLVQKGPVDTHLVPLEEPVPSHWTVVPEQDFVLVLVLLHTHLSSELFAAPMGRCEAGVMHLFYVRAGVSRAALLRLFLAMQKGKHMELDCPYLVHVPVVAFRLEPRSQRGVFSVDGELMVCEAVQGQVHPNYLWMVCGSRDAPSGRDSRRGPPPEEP

[7] = Oral bioavailability in mouse at 5 mg/kg; format: ADME, organism-based; settings: in vivo
[8] = Mean residence time in mouse at 5 mg/kg, po; format: ADME, organism-based; design: dose 5 mg/kg, route oral; settings: in vivo
[9] = Clearance in mouse at 5 mg/kg, po; format: ADME, organism-based; design: dose 5 mg/kg, route oral; settings: in vivo
[10] = Fraction unbound in human plasma by ultra-centrifugation method; format: ADME, cell-free
[11] = Fraction unbound in rat plasma by ultra-centrifugation method; format: ADME, cell-free
[12] = Mean residence time in rat at 0.5 mg/kg, iv; format: ADME, organism-based; design: dose 0.5 mg/kg, route intravenous; settings: in vivo
Sphingosine kinase 2 [13] = biological target: T3, Sphingosine kinase 2 (Mus musculus, UniProt Q9JIA7); assay: Inhibition of mouse SphK2
T3 sequence (Q9JIA7 whole entry): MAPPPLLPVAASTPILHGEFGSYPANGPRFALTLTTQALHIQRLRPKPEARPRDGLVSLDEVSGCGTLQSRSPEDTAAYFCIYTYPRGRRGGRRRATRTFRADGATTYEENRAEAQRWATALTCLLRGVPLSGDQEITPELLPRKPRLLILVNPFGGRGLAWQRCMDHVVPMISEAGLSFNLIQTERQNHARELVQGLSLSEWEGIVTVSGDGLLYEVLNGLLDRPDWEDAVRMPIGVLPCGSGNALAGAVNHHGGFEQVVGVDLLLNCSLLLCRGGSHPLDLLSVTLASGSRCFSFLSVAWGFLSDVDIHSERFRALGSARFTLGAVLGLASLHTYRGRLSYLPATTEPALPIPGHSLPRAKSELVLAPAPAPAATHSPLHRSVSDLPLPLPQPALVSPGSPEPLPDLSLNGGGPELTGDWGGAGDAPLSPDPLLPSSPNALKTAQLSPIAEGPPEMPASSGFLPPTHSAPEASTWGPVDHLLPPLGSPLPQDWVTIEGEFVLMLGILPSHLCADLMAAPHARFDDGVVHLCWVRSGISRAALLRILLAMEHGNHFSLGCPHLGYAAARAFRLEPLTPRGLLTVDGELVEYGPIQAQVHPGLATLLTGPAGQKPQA

IC50 (Sphingosine kinase 2 [1]) [µM] | IC50 (Sphingosine kinase 1 [2]) [µM] | SMILES | other results
– | – | CCCCCCCCCCCCc1ccc(C(=O)NC2(C(=N)N)CC2)cc1 | Ki (Sphingosine kinase 2 [1]): 0.5 µM; Ki (Sphingosine kinase 1 [2]): 0.2 µM
1.7 | – | CN1CCN(CCc2ccc(Nc3nc(-c4ccc5ccccc5c4)cs3)cc2)C(CO)C1 (configuration not stated) | –
– | 0.007 | Cc1ccc(-c2csc(Nc3ccc(CCN4CC[C@H](O)C[C@@H]4CO)cc3)n2)cc1 | –
0.27 | 0.03 | OC[C@H]1C[C@@H](O)CN1CCCc1ccc(Nc2nc(-c3ccc(Cl)c(Cl)c3)cs2)cc1 | Vd [3]: > 100 L/kg; clearance [4]: > 14 L/h/kg
> 5 | 0.07 | CCCCc1csc(Nc2ccc(CCN3CC[C@H](O)C[C@@H]3CO)cc2)n1 | EC50 (Sphingosine kinase 1 [5]): 0.37 µM
– | 0.08 | OC[C@H]1CCCCN1CCc1ccc(Nc2nc(-c3ccc4ccccc4c3)cs2)cc1 | –
– | 1.1 | OC[C@@H]1CCCCN1CCc1ccc(Nc2nc(-c3ccc4ccccc4c3)cs2)cc1 | –
> 10 | – | OCC1CCCCCN1CCc1ccc(Nc2nc(-c3ccc4ccccc4c3)cs2)cc1 (configuration not stated) | –
0.09 | 0.03 | OC[C@H]1C[C@H](O)CN1CCCc1ccc(Nc2nc(-c3ccc(Cl)c(Cl)c3)cs2)cc1 | Vd [3]: > 100 L/kg; clearance [4]: > 14 L/h/kg
– | 0.008 | OC[C@H]1C[C@@H](O)CCN1CCc1ccc(Nc2nc(-c3ccc(Cl)cc3)cs2)cc1 | EC50 (Sphingosine kinase 1 [5]): 0.13 µM
3 | – | O=S1(=O)CCN(CCc2ccc(Nc3nc(-c4ccc(Cl)c(Cl)c4)cs3)cc2)C(CO)C1 (configuration not stated) | –
– | – | OC[C@H]1C[C@@H](O)CCN1CCc1ccc(Nc2nc(-c3ccc(C(F)(F)F)cc3)cs2)cc1 | IC50 (Sphingosine kinase 1 [6]): 0.07 µM; bioavailability [7]: 32%; MRT [8]: 13 h; CL/F [9]: 0.7 L/h/kg; fraction unbound [10]: 0.04; fraction unbound [11]: 0.03; Vd [3]: 17 L/kg; MRT [12]: 12 h; clearance [4]: 1.4 L/h/kg
– | 0.07 | OC[C@H]1C[C@@H](O)CCN1CCc1ccc(Nc2nc(-c3ccccc3)cs2)cc1 | EC50 (Sphingosine kinase 1 [5]): 0.31 µM
> 5 | 0.13 | OC[C@H]1C[C@@H](O)CCN1CCc1ccc(Nc2nc(C3CCCC3)cs2)cc1 | EC50 (Sphingosine kinase 1 [5]): 0.85 µM
> 5 | – | OC[C@H]1C[C@@H](O)CCN1CCc1ccc(Nc2nc(-c3cccc(F)c3)cs2)cc1 | –
– | – | N=C(N)[C@@H]1CCCN1C(=O)c1ccc(-c2nc(-c3cccc(CCC4CCCCC4)c3)co2)cc1 | Ki (Sphingosine kinase 2 [1]): 4.2 µM; Ki (Sphingosine kinase 1 [2]): 0.05 µM
– | 0.08 | OC[C@H]1CCCCN1CCc1ccc(Nc2nc(-c3ccc(Cl)cc3)cs2)cc1 | –

IC50 (Sphingosine kinase 2 [1]) [µM] | IC50 (Sphingosine kinase 1 [2]) [µM] | SMILES | other results
– | 0.14 | OCC1CCCCN1CCc1ccc(Nc2nc(-c3ccc4ccccc4c3)cs2)cc1 (configuration not stated) | –
> 10 | > 5 | CC(C)(C)c1csc(Nc2ccc(CCN3CC[C@H](O)C[C@@H]3CO)cc2)n1 | –
0.09 | – | OC[C@H]1C[C@@H](O)CN1CCc1ccc(Nc2nc(-c3ccc(Cl)c(Cl)c3)cs2)cc1 | Vd [3]: > 100 L/kg; clearance [4]: > 14 L/h/kg
– | 0.27 | OC[C@H]1CCCCN1CCc1ccc(Nc2nc(-c3cccc(Cl)c3)cs2)cc1 | –
– | > 10 | N#Cc1ccc(-c2csc(Nc3ccc(CCN4CCCC[C@@H]4CO)cc3)n2)cc1 | –
2.5 | 0.99 | OC[C@@H]1CCCN1CCc1ccc(Nc2nc(-c3ccc4ccccc4c3)cs2)cc1 | –
– | – | OC[C@H]1C[C@@H](O)CCN1CCc1ccc(Nc2nc(-c3ccc(Cl)cc3Cl)cs2)cc1 | IC50 (Sphingosine kinase 2 [13]): > 10 µM; IC50 (Sphingosine kinase 1 [6]): 0.02 µM; fraction unbound [10]: 0.02; fraction unbound [11]: 0.01; Vd [3]: 18 L/kg; MRT [12]: 14 h; clearance [4]: 1.3 L/h/kg
> 10 | – | OCC1COCCN1CCc1ccc(Nc2nc(-c3ccc4ccccc4c3)cs2)cc1 (configuration not stated) | –
> 10 | > 10 | OCCC1CCCCN1CCc1ccc(Nc2nc(-c3ccc4ccccc4c3)cs2)cc1 (configuration not stated) | –
2.5 | – | OCC1CCN1CCc1ccc(Nc2nc(-c3ccc4ccccc4c3)cs2)cc1 (configuration not stated) | –
0.25 | – | OC[C@H]1C[C@H](O)CN1CCc1ccc(Nc2nc(-c3ccc(Cl)c(Cl)c3)cs2)cc1 | Vd [3]: > 100 L/kg; clearance [4]: > 14 L/h/kg
> 10 | 2.5 | OC[C@H]1C[C@@H](O)CCN1CCCc1ccc(Nc2nc(-c3ccc(Cl)c(Cl)c3)cs2)cc1 | –
5.7 | – | COC[C@H]1CCCN1CCc1ccc(Nc2nc(-c3ccc4ccccc4c3)cs2)cc1 | –
– | 0.005 | OC[C@H]1C[C@@H](O)CCN1CCc1ccc(Nc2nc(-c3cccc(C(F)(F)F)c3F)cs2)cc1 | EC50 (Sphingosine kinase 1 [5]): 0.25 µM
2.7 | 0.58 | OC[C@H]1CCCN1CCc1ccc(Nc2nc(-c3ccc4ccccc4c3)cs2)cc1 | –
– | – | CCCCc1ccc(/C=C/[C@H](O)[C@@H](CO)NC)cc1 | Ki (Sphingosine kinase 2 [1]): > 100 µM; Ki (Sphingosine kinase 1 [2]): 10 µM
